Measured values reported in patent publication US9062093B2, “Peptide compositions and methods for treating patients” (THE REGENTS OF THE UNIVERSITY OF MICHIGAN, priority 2011, dated 2015).

Tested on: C57BL/6J mice
Experiment: Blood glucose after oral load of glucose together with amino acid or peptide
Type: in vivo
Conditions: for Blood glucose levels in mice loaded with glucose: non-diabetic mice, glucose 2 mg/g bw and peptide 1 mg/g bw orally
Description: An experiment was performed in adult male C57BL/6J mice purchased from Jackson Lab (Bar Harbor, Me.). Fasted mice were given glucose (2 mg/g body weight, diamond line in FIG. 1, n=10) or glycine (0.35 mg/g bw, square line in FIG. 1, n=10) and glucose by gavaging. Blood glucose was measured at 0, 30, 60, 90, and 120 min after giving glucose.
An experiment was performed in adult male C57BL/6J mice purchased from Jackson Lab. In the control group (diamond line in FIG. 13, n=10), glucose was orally administered at dose of 2 mg/g bw. In the Diapin and LLG group (square line or triangle line, n=9), glucose and Diapin or glucose and LLG were orally administered at dose of 2 mg/g bw and 1 mg/g bw, respectively. Blood glucose was measured at 0, 30, 60, 90 and 120 min after gavaging glucose and Diapin.
An experiment was performed in adult male C57BL/6J mice purchased from Jackson Lab. In the control group (diamond line in FIG. 14, n=10), glucose was orally administered at dose of 2 mg/g bw. […] Blood glucose was measured at 0, 30, 60, 90 and 120 min after gavaging glucose and GLG or GLL.
An experiment was performed in adult male C57BL/6J mice purchased from Jackson Lab. […] Blood glucose was measured at 0, 0.5, 1, 1.5 and 2 hours after gavaging glucose, Diapin and amidated Diapin.
An experiment was performed in adult male C57BL/6J mice purchased from Jackson Lab. […] Blood glucose was measured at 0, 0.5, 1, 1.5 and 2 hours after gavaging glucose, Diapin, and acetylated Diapin.
An experiment was performed in adult male C57BL/6J mice purchased from Jackson Lab. […] Blood glucose was measured at 0, 0.5, 1, 1.5 and 2 hours after gavaging glucose, Diapin and amidated/acetylated Diapin.
(§1) An experiment was performed in adult male C57BL/6J mice purchased from Jackson Lab. […] Blood glucose was measured at 30, 60, 90 and 120 min after giving glucose. […]
as §1

| Molecule | Blood glucose levels compared to the control group (glycine 0.35 mg/g bw and glucose 2 mg/g bw by gavage, fasted mice, any time point (0, 30, 60, 90, 120 min)) | Blood glucose levels in mice loaded with glucose |
| --- | --- | --- |
| NCC(=O)O [glycine, reference compound] | not significantly changed |  |
| Glycine-Leucine-Leucine [GLL] |  | significantly reduce blood glucose levels |
| Leucine-Leucine-Glycine [LLG] |  | significantly reduce blood glucose levels |
